Calls of active or inactive are those of the source. No cut-off for these calls is given here.
Assays:
[1] = target: T1, Progesterone receptor (Homo sapiens) (UniProt P06401); experiment: Agonist efficacy towards human progesterone receptor (hPR) expressed in CV-1 cells; Not active; type: functional, cell-based
T1 sequence (whole entry): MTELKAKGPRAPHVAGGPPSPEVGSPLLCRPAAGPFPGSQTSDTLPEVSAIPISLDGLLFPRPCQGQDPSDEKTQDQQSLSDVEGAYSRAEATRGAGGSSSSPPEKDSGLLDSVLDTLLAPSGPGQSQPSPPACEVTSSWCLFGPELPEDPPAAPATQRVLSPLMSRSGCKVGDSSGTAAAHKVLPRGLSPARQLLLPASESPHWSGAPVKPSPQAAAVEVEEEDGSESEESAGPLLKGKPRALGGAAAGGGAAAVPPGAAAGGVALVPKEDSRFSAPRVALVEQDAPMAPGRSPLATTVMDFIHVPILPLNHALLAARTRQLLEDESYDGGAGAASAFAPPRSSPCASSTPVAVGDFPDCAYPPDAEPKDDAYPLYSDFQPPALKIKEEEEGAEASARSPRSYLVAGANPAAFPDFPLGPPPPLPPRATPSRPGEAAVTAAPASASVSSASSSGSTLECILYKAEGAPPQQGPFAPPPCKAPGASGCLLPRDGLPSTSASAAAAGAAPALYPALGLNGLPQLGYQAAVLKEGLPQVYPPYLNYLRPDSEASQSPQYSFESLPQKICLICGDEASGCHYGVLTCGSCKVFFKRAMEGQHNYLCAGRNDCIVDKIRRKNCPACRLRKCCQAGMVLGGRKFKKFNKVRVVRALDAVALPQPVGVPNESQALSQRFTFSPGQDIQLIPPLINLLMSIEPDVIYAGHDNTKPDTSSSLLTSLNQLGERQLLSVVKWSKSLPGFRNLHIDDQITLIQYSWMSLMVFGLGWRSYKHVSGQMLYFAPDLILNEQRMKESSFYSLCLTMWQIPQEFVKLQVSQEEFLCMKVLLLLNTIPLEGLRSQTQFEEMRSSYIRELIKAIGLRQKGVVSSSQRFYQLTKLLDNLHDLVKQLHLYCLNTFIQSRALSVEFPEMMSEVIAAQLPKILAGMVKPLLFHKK

Progesterone receptor [2] = target: T2, Progesterone receptor (Homo sapiens, UniProt P06401); experiment: Effective concentration for agonist activity towards human progesterone receptor (hPR) expressed in CV-1 cells; Not active; type: functional, cell-based
T2 sequence (P06401 whole entry): T1 sequence (whole entry)

[3] = target: T1, Progesterone receptor (Homo sapiens); experiment: Antagonistic efficacy towards human progesterone receptor (hPR) using the cotransfection assay in CV-1 cells; type: functional, cell-based
Progesterone receptor [4] = target: T2, Progesterone receptor; experiment: Binding affinity to human progesterone receptor
Progesterone receptor [5] = target: T2, Progesterone receptor; experiment: Inhibitory concentration for antagonistic activity towards human progesterone receptor (hPR) using the cotransfection assay in CV-1 cells; type: functional, cell-based
[6] = target: T1, Progesterone receptor (Homo sapiens); experiment: Agonist efficacy towards human progesterone receptor (hPR) using the cotransfection assay in CV-1 cells; type: functional, cell-based
Progesterone receptor [7] = target: T2, Progesterone receptor; experiment: Effective concentration for agonist activity towards human progesterone receptor (hPR) using the cotransfection assay in CV-1 cells; type: functional, cell-based
[8] = target: T1, Progesterone receptor (Homo sapiens); experiment: Antagonistic efficacy towards human progesterone receptor (hPR) using the cotransfection assay in CV-1 cells; Not active; type: functional, cell-based
Progesterone receptor [9] = target: T2, Progesterone receptor; experiment: Inhibitory concentration for antagonistic activity towards human progesterone receptor (hPR) using the cotransfection assay in CV-1 cells; Not active; type: functional, cell-based
Androgen receptor = target: T3, Androgen receptor (Homo sapiens, UniProt P10275); experiment: Antagonist activity against human Androgen receptor; type: functional
T3 sequence (P10275 whole entry): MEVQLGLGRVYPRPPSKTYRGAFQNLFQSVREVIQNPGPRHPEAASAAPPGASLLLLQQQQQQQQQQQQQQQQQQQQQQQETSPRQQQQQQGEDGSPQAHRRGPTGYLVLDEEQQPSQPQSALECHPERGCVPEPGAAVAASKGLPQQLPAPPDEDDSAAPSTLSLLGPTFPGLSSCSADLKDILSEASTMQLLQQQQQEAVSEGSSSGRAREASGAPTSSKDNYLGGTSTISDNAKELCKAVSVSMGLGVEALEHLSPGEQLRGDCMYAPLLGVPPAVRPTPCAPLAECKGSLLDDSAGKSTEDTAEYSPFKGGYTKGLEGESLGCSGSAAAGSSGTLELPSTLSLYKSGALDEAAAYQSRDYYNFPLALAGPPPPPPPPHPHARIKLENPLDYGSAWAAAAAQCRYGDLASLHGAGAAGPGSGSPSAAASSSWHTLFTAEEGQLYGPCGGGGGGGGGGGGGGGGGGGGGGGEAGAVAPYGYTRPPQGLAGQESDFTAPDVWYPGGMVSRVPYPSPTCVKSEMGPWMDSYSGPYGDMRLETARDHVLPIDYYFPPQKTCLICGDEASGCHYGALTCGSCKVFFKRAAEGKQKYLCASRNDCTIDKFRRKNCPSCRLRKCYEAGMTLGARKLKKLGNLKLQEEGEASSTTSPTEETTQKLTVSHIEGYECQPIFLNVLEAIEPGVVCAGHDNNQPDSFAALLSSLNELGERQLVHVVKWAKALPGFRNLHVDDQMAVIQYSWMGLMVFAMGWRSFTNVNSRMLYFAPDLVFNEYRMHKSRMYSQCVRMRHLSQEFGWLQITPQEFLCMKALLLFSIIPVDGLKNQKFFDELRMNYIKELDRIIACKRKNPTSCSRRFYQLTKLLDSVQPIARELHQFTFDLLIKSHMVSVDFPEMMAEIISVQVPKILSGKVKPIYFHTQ

Glucocorticoid receptor = target: T4, Glucocorticoid receptor (Homo sapiens, UniProt P04150); experiment: Antagonist activity at glucocorticoid receptor; type: functional
T4 sequence (P04150 whole entry): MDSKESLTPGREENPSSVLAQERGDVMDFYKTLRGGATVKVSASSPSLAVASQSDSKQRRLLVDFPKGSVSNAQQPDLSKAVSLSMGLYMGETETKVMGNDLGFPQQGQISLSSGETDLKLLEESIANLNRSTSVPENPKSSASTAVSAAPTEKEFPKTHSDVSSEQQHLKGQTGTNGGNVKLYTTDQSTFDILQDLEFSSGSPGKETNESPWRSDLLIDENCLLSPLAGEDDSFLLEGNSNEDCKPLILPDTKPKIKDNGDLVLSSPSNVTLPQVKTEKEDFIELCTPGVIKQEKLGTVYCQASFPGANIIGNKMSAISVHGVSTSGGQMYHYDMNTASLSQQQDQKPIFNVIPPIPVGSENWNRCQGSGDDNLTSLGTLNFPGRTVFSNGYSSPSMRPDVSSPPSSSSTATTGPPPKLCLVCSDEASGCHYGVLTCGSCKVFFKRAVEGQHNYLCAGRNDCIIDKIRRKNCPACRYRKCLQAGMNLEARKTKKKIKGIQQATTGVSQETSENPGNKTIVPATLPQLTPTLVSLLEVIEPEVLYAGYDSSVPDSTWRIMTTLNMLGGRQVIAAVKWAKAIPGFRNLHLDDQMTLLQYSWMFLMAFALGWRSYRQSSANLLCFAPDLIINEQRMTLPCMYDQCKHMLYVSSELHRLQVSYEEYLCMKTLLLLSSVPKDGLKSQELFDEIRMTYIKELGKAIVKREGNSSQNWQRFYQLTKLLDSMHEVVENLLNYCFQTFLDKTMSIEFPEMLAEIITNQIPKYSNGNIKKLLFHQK

[10] = target: T5, Mineralocorticoid receptor (Homo sapiens, UniProt P08235); experiment: Antagonist activity at mineralocorticoid receptor (hMR); type: functional
T5 sequence (P08235 whole entry): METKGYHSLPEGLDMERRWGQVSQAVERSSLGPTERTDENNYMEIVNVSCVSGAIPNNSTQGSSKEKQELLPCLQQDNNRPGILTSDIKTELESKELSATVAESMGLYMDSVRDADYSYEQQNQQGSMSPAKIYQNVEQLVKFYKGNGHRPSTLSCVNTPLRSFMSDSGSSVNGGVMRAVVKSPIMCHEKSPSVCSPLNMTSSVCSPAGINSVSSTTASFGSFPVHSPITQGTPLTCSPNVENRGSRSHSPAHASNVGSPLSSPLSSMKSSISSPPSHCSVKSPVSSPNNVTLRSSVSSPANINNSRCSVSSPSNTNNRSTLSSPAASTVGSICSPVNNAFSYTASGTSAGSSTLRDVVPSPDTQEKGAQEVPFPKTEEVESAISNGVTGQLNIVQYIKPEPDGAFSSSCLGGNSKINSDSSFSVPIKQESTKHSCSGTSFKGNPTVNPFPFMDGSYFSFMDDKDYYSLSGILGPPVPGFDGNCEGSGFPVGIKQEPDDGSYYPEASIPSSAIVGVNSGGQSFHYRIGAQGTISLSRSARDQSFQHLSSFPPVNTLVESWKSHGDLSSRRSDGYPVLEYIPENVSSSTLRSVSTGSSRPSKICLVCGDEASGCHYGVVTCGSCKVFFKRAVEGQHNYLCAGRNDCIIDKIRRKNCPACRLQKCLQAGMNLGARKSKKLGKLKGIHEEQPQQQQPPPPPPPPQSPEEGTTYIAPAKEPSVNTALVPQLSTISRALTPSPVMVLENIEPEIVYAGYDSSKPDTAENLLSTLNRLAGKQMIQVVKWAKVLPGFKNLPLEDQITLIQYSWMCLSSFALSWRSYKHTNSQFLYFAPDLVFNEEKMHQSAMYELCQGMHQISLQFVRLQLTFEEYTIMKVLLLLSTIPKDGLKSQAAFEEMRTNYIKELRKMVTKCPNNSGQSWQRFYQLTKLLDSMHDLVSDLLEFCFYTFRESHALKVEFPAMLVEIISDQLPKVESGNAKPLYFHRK

[11] = target: T6, Mineralocorticoid receptor (Homo sapiens) (UniProt P08235); experiment: Antagonist efficacy at mineralocorticoid receptor (hMR); type: functional
T6 sequence (whole entry): T5 sequence (P08235 whole entry)

Progesterone receptor [12] = target: T2, Progesterone receptor; experiment: Inhibition of antagonist binding to human progesterone receptor (hPR); Not active

Compound | Efficacy [1] | EC50 (Progesterone receptor [2]) | Efficacy [3] [%] | Ki (Progesterone receptor [4]) [µM] | IC50 (Progesterone receptor [5]) [µM] | Efficacy [6] [%] | EC50 (Progesterone receptor [7]) [µM] | Efficacy [8] | IC50 (Progesterone receptor [9]) | IC50 (Androgen receptor) [µM] | IC50 (Glucocorticoid receptor) [µM] | IC50 [10] [µM] | Efficacy [11] [%] | IC50 (Progesterone receptor [12])
CC1=CC(C)(C)Nc2ccc3c(c21)C(=C(c1ccccc1)c1ccccc1)Oc1ccc(F)cc1-3 | inactive | Not Active | 90 | > 0.1 | 1.93 | – | – | – | – | – | – | – | – | –
CC1=CC(C)(C)Nc2ccc3c(c21)/C(=C/C1CCCCC1)Oc1ccc(F)cc1-3 | – | – | 70 | > 0.1 | 0.8 | 28 | 0.048 | – | – | – | – | – | – | –
CC/C(C)=C1/Oc2ccc(F)cc2-c2ccc3c(c21)C(C)=CC(C)(C)N3 | – | – | 38 | 0.0167 | 0.98 | 64 | 0.027 | – | – | – | – | – | – | –
C=C1Oc2ccc(F)cc2-c2ccc3c(c21)C(C)=CC(C)(C)N3 | – | – | – | 0.0061 | – | 87 | 1 | inactive | Not Active | – | – | – | – | –
CC1=CC(C)(C)Nc2ccc3c(c21)/C(=C/C=O)Oc1ccc(F)cc1-3 | inactive | Not Active | 97 | > 0.1 | 0.243 | – | – | – | – | – | – | – | – | –
CC1=CC(C)(C)Nc2ccc3c(c21)C(=C1SCCCS1)Oc1ccc(F)cc1-3 | – | – | – | – | – | 151 | 0.0021 | inactive | Not Active | 0.18 | 0.146 | 0.681 | 92 | –
CC1=CC(C)(C)Nc2ccc3c(c21)/C(=C/C#N)Oc1ccc(F)cc1-3 | – | – | 75 | 0.045 | 0.065 | 70 | 2.7 | – | – | – | – | – | – | –
CCC/C=C1\Oc2ccc(F)cc2-c2ccc3c(c21)C(C)=CC(C)(C)N3 | – | – | – | 0.0031 | – | 90 | 0.028 | inactive | – | – | – | – | – | Not Active
CC(=O)/C=C1\Oc2ccc(F)cc2-c2ccc3c(c21)C(C)=CC(C)(C)N3 | inactive | Not Active | 91 | > 0.1 | 0.124 | – | – | – | – | – | – | – | – | –
CC1=CC(C)(C)Nc2ccc3c(c21)/C(=C/c1ccccc1C)Oc1ccccc1-3 | – | – | – | – | – | – | – | inactive | Not Active | – | – | – | – | –
C=C(/C=C1\Oc2ccc(F)cc2-c2ccc3c(c21)C(C)=CC(C)(C)N3)C(C)C | – | – | – | 0.026 | – | 122 | 0.029 | inactive | Not Active | – | – | – | – | –

— ChEMBL document CHEMBL1136068 (Bioorg Med Chem Lett, 2003)
